Laboratory results: article PMC9209747 (Neuro-oncology Advances, 2022)
“And” between values parts separate entries of the source, which are not always exact repeats. Identical values can stand only once. Like-named read-outs stand apart in the source and are kept apart here. Marks after values point to notes of the source that are not given here.

Tests used:
clinical = conditions: human, in vivo
Description: Pharmacokinetic parameters were calculated using noncompartmental methods[20] using Phoenix® WinNonlin® Version 8.1 (WinNonlin version 8.1.03530, Pheonix 64; Pharsight Corporation, Mountain View, CA). […] Oral steady-state clearance (ClSS/F) was calculated using the equation, ClSS = Dose/AUCτ.

[1] = parameters: method as in ref 25 = [25]; 25. Alexander B , Supko J , Agar N , et al. ACTR-14. Phase 1 study of AZD1775 with radiation therapy (RT) and Temozolomide (TMZ) in patients with newly diagnosed gliobasltoma (GBM) and evaluation of i; conditions: adavosertib 200 mg/day (approximately 115 mg/m^2/day) in combination with temozolomide; cited from earlier work
[2] = system: pediatric high-grade glioma including DIPG; parameters: method as in PMID 24305702, PMID 23270927; conditions: in combination with radiation therapy; cited from earlier work
[3] = Description: Patients received focal CRT at the current standard dose of 54 Gy in 180 cGy fractions, Monday through Friday for a total of 30 fractions over 6 weeks, with a rest period on Saturday and Sunday of each week.
Adverse events (AE) were graded according to the Common Terminology Criteria for Adverse Events version 5.0.
A rolling six design was used to estimate the MTD or RP2D. Overall survival (OS) was estimated using the Kaplan Meier method including 95% confidence intervals (CI). OS was calculated as the time (in months) from enrollment until date of death. […] Progressive disease was based on central imaging review. […] OS is compared with an historical cohort of patients which cumulatively includes DIPG patients from ACNS0126[23] and ACNS0222[22] using a log-rank test. PK parameters were analyzed with summary statistics, including means, and standard deviations.

[4] = cited from earlier work
[5] = system: γH2AX in peripheral blood mononuclear cells (PBMCs); assay: γH2AX in peripheral blood cells by flow cytometry (pharmacodynamics); assay type: in vivo, human; conditions: for γ-H2AX positive cells in peripheral blood cells, Post-Day1 dosing / γ-H2AX positive cells in peripheral blood cells, Post-Day5 dosing / γ-H2AX positive cells in peripheral blood cells, Post-Day8 dosing: individual patients
Description: The expression of γH2AX in PBMCs was measured pre and posttreatment using flow cytometry. Effort was made to obtain two baseline (pretreatment) samples on two different days, with the first occurring within 7 days prior to CRT. Serial samples were then collected on days 1 and 5 of treatment, 6-8 hours after each dose, and day 8 prior to the day's dose. Blood samples of 1 mL were drawn into heparinized containing tubes and transferred to a Smart Tube (Thermo Fisher) followed by a 30 min incubation period in a 37°C water bath for activation per manufacture's guidelines. Samples were stored at -80°C until shipment. The frozen Smart Tubes were thawed in a 10-12°C water bath for 20 min before the red blood cells were lysed and intact cells were fixed in 90% methanol and stored at -20°C overnight. Briefly, the methanol fixed cells were washed and blocked in staining buffer (1X PBS containing 0.5 mg/ml BSA) containing TruStain FcX^TM (BioLegend) for 10 min at room temperature. Next, cells were incubated with FITC-conjugated anti-γH2AX […] antibody (BioLegend) for 1 h, washed and DNA stained with propidium iodide (2 μg/ml) before data colection by flow cytometry on CytoflexS. Percent positive γH2AX blood cells was determined by FlowJo software and described as fold-change over baseline for each patient.[16]

[6] = cited from earlier work; remark: listed apart in the source
[7] = 50 mg/m², alternating with weeks of QOD dosing

C=CCn1c(=O)c2cnc(Nc3ccc(N4CCN(C)CC4)cc3)nc2n1-c1cccc(C(C)(C)O)n1 [adavosertib]
Dose dependence of Cmax and AUC (clinical): appeared to increase in proportion to dose
Median BSA-adjusted plasma clearance (clinical): 45.2 L/hr/m^2
Median half-life (clinical): 4.4 h
half-life (clinical): 4.4 h
AUC (clinical; 50 mg/m2): 2.45 ± 1.04 µM·h
AUC0-8h (clinical; 50 mg/m2): 1.42 ± 0.438 µM·h
AUC(0-inf) (clinical; 50 mg/m2): 2.22 ± 0.8 µM·h
CLss (steady-state clearance) (clinical; 50 mg/m2): 47.9 ± 23.2 L/hr/m^2
Cmax (clinical; 50 mg/m2): 356 ± 109 nM
Tmax (clinical; 50 mg/m2): 1.9 ± 0.9 h
half-life (clinical; 50 mg/m2): 4.2 ± 1.3 h
AUC(0-t) (clinical; 50 mg/m2, AUC0-8h): 1.65 ± 0.654 µM·h
Cmax (clinical; 50 mg/m2, Cmax): 422 ± 170 nM
Tmax (clinical; 50 mg/m2, Tmax): 1.9 ± 0.9 h
AUC (clinical; 95 mg/m2): 5.74 ± 2.72 µM·h
AUC0-8h (clinical; 95 mg/m2): 3.362 ± 0.85 µM·h
AUC(0-inf) (clinical; 95 mg/m2): 6.03 ± 1.98 µM·h
CLss (steady-state clearance) (clinical; 95 mg/m2): 39.2 ± 17.2 L/hr/m^2
Cmax (clinical; 95 mg/m2): 869 ± 235 nM
Tmax (clinical; 95 mg/m2): 1.8 ± 0.4 h
half-life (clinical; 95 mg/m2): 4.5 ± 1.2 h
AUC(0-t) (clinical; 95 mg/m2, AUC0-8h): 4.01 ± 1.81 µM·h
Cmax (clinical; 95 mg/m2, Cmax): 933 ± 351 nM
Tmax (clinical; 95 mg/m2, Tmax): 1.9 ± 0.5 h
AUC (clinical; 130 mg/m2): 7.21 ± 2.76 µM·h
AUC0-8h (clinical; 130 mg/m2): 3.731 ± 1.583 µM·h
AUC(0-inf) (clinical; 130 mg/m2): 5.87 ± 2.26 µM·h
CLss (steady-state clearance) (clinical; 130 mg/m2): 41.6 ± 19.8 L/hr/m^2
Cmax (clinical; 130 mg/m2): 821 ± 410 nM
half-life (clinical; 130 mg/m2): 4.1 ± 0.5 h
AUC(0-t) (clinical; 130 mg/m2, AUC0-8h): 4.48 ± 1.77 µM·h
Cmax (clinical; 130 mg/m2, Cmax): 994 ± 467 nM
Tmax (clinical; 130 mg/m2, Tmax): 2.3 ± 0.8 h
AUC (clinical; 160 mg/m2): 12.8 ± 1.8 µM·h
AUC0-8h (clinical; 160 mg/m2): 6.689 ± 2.738 µM·h
AUC(0-inf) (clinical; 160 mg/m2): 11.4 ± 3.73 µM·h
CLss (steady-state clearance) (clinical; 160 mg/m2): 25.6 ± 3.3 (n* = 4) L/hr/m^2
Cmax (clinical; 160 mg/m2): 1270 ± 705 nM
half-life (clinical; 160 mg/m2): 4.8 ± 1 h
AUC(0-t) (clinical; 160 mg/m2, AUC0-8h): 8.47 ± 2.36 µM·h
Cmax (clinical; 160 mg/m2, Cmax): 1690 ± 670 nM
Tmax (clinical; 160 mg/m2, Tmax): 2.2 ± 1.1 h
AUC (clinical; 200 mg/m2): 16.4 ± 7.76 µM·h
AUC0-8h (clinical; 200 mg/m2): 6.904 ± 2.758 µM·h
AUC(0-inf) (clinical; 200 mg/m2): 12.2 ± 1.7 µM·h
CLss (steady-state clearance) (clinical; 200 mg/m2): 33.4 ± 25.8 L/hr/m^2
Cmax (clinical; 200 mg/m2): 1650 ± 1050 nM
Tmax (clinical; 200 mg/m2): 2.5 ± 2.1 h
half-life (clinical; 200 mg/m2): 5.6 ± 1.3 h
AUC(0-t) (clinical; 200 mg/m2, AUC0-8h): 9.63 ± 4.22 µM·h
Cmax (clinical; 200 mg/m2, Cmax): 2020 ± 780 nM
Tmax (clinical; 200 mg/m2, Tmax): 2.6 ± 1.4 h
Mean oral clearance (clinical; po): 46.9 L/h
Tmax (clinical; po, Tmax): 2 h
Toxicity in adults with newly diagnosed glioblastoma [1]: significant toxicity
Survival in murine models [2]: prolongs survival
Lung infection, patient-courses with grade >= 3 ([3]; all dose levels (N = 89)): 1 (1) # (%)
Lung infection, patient-courses with grade >= 3 ([3]; dose level 4 (N = 15), 95 mg/m^2): 1 (6) # (%)
Alanine aminotransferase increased, patient-courses with grade >= 3 ([3]; human, in vivo, 6 weeks): 1 (1) # (%)
Anemia, patient-courses with grade >= 3 ([3]; human, in vivo, 6 weeks): 3 (3) # (%)
Dizziness, patient-courses with grade >= 3 ([3]; human, in vivo, 6 weeks): 1 (1) # (%)
Febrile neutropenia, patient-courses with grade >= 3 ([3]; human, in vivo, 6 weeks): 1 (1) # (%)
Headache, patient-courses with grade >= 3 ([3]; human, in vivo, 6 weeks): 1 (1) # (%)
Hypocalcemia, patient-courses with grade >= 3 ([3]; human, in vivo, 6 weeks): 1 (1) # (%)
Lymphocyte count decreased, patient-courses with grade >= 3 ([3]; human, in vivo, 6 weeks): 16 (18) # (%)
Neutrophil count decreased, patient-courses with grade >= 3 ([3]; human, in vivo, 6 weeks): 4 (4) # (%)
Weight gain, patient-courses with grade >= 3 ([3]; human, in vivo, 6 weeks): 2 (2) # (%)
White blood cell decreased, patient-courses with grade >= 3 ([3]; human, in vivo, 6 weeks): 5 (6) # (%)
Recommended phase 2 dose (RP2D) ([3]; human, in vivo, po, 6 weeks): 200 mg/m^2/d
Maximum tolerated dose (MTD) ([3]; seven dose levels up to 200 mg/m^2/day with CRT): No MTD was reached
BSA-adjusted plasma clearance ([4]; earlier pediatric COG study): 32.5 L/hr/m^2
MTD of adavosertib ([4]; in combination with irinotecan 90 mg/m^2/dose, orally daily for 5 days on a 21 day cycle): 85 mg/m^2/dose
γ-H2AX positive cells in peripheral blood cells, Post-Day1 dosing ([5]; 50 mg/m², During Weeks 1-6): 1.42 and 1.29
γ-H2AX positive cells in peripheral blood cells, Post-Day5 dosing ([5]; 50 mg/m², During Weeks 1-6): 1.42 and 0.32
γ-H2AX positive cells in peripheral blood cells, Post-Day8 dosing ([5]; 50 mg/m², During Weeks 1-6): 0.68 and 0.11
γ-H2AX positive cells in peripheral blood cells, Post-Day1 dosing ([5]; 50 mg/m², alternating weeks): 2.74
γ-H2AX positive cells in peripheral blood cells, Post-Day5 dosing ([5]; 50 mg/m², alternating weeks): 2.03
γ-H2AX positive cells in peripheral blood cells, Post-Day8 dosing ([5]; 50 mg/m², alternating weeks): 7.24
γ-H2AX positive cells in peripheral blood cells, Post-Day1 dosing [5, 7]: 3.17 and 1.03 and 1.31 and 0.12
γ-H2AX positive cells in peripheral blood cells, Post-Day5 dosing [5, 7]: 7.63 and 0.70 and 4.90 and 0.15
γ-H2AX positive cells in peripheral blood cells, Post-Day8 dosing [5, 7]: 1.08 and 2.90 and 2.30 and 0.19
γ-H2AX positive cells in peripheral blood cells, Post-Day1 dosing ([5]; 95 mg/m², During Weeks 1-6): 2.48 and 3.42 and 1.89
γ-H2AX positive cells in peripheral blood cells, Post-Day5 dosing ([5]; 95 mg/m², During Weeks 1-6): 6.31 and 0.55 and 1.63
γ-H2AX positive cells in peripheral blood cells, Post-Day8 dosing ([5]; 95 mg/m², During Weeks 1-6): 4.92 and 0.04 and 2.75
γ-H2AX positive cells in peripheral blood cells, Post-Day1 dosing ([5]; 130 mg/m², During Weeks 1-6): 0.26 and 0.38 and 0.61 and 0.16 and 10.60 and 0.31
γ-H2AX positive cells in peripheral blood cells, Post-Day5 dosing ([5]; 130 mg/m², During Weeks 1-6): 0.41 and 0.33 and 2.47 and 0.43 and 3.75 and 0.06
γ-H2AX positive cells in peripheral blood cells, Post-Day8 dosing ([5]; 130 mg/m², During Weeks 1-6): 0.48 and 1.08 and 16.50 and 0.50 and 1.49 and 0.00
γ-H2AX positive cells in peripheral blood cells, Post-Day1 dosing ([5]; 160 mg/m², During Weeks 1-6): 0.96 and 7.75 and 0.95 and 2.25 and 6.62
γ-H2AX positive cells in peripheral blood cells, Post-Day5 dosing ([5]; 160 mg/m², During Weeks 1-6): 5.27 and 0.13 and 1.86 and 0.31 and 5.28
γ-H2AX positive cells in peripheral blood cells, Post-Day8 dosing ([5]; 160 mg/m², During Weeks 1-6): 5.59 and 5.55 and 0.95 and 3.37 and 3.25
γ-H2AX positive cells in peripheral blood cells, Post-Day1 dosing ([5]; 200 mg/m², During Weeks 1-6): 0.88 and 2.45 and 17.90 and 0.00
γ-H2AX positive cells in peripheral blood cells, Post-Day5 dosing ([5]; 200 mg/m², During Weeks 1-6): 3.75 and 3.61 and 16.90 and 0.01 and 6.11
γ-H2AX positive cells in peripheral blood cells, Post-Day8 dosing ([5]; 200 mg/m², During Weeks 1-6): 0.40 and 2.17 and 14.70 and 0.01 and 5.81
Change of γH2AX in PBMCs compared to baseline ([5]; any dose level, with CRT): no significant changes compared to baseline
Elimination half-life (t1/2) ([6]; adult patients): 9 to 11 h
Tmax ([6]; adult patients): 4 h
Mean oral clearance ([6]; fasting adults, ref a recent report of a food-effect study): 40.85 L/h
